The values below come from patent US7786141B2 (Vertex Pharmaceuticals Incorporated, priority 2004, dated 2010).

Bounds are passed on as bounds.

The target in one experiment is T1, M1 muscarinic receptor (Homo sapiens, UniProt P11229).
T1 construct: expressed in transfected cells; host or cells: CHO (M1-CHO)
T1 sequence (P11229 1-460): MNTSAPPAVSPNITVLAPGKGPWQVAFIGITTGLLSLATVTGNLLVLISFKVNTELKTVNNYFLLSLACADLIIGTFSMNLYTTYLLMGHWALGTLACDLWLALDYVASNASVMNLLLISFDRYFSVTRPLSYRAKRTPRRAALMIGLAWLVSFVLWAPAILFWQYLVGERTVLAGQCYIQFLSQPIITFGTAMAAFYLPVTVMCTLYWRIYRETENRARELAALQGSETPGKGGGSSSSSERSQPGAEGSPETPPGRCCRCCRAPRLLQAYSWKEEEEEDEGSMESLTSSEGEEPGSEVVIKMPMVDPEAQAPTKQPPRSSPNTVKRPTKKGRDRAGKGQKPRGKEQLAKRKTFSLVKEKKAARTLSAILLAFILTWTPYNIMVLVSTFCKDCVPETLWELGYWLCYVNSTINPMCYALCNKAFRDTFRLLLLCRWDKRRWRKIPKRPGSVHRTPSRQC
Nature of the experiment: Functional mobilization of intracellular calcium (FLIPR) in M1-CHO cells. Conditions: Table 4; for Emax: 100% efficacy is the maximum response obtained with the Carbachol control; for M1 Activity: modulating M1 receptor. Format: cell-based. The method, boiled down: (§1)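 Steps: seed M1- or M4-CHO cells 18-24 hrs ahead; load calcium dye with 1 mM probenecid; add test compound (0.5% DMSO final), either alone for agonism or 15 min before EC80 carbachol for inhibition; record FLIPR fluorescence for 60 sec.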
For orientation: A change in cytosolic calcium serves as a functional read-out for many receptors and channels.

Another experiment addresses T2, M4 muscarinic receptor (Homo sapiens, UniProt P08173).
T2 construct: expressed in transfected cells; host or cells: CHO (M4-CHO)
T2 sequence (P08173 1-479): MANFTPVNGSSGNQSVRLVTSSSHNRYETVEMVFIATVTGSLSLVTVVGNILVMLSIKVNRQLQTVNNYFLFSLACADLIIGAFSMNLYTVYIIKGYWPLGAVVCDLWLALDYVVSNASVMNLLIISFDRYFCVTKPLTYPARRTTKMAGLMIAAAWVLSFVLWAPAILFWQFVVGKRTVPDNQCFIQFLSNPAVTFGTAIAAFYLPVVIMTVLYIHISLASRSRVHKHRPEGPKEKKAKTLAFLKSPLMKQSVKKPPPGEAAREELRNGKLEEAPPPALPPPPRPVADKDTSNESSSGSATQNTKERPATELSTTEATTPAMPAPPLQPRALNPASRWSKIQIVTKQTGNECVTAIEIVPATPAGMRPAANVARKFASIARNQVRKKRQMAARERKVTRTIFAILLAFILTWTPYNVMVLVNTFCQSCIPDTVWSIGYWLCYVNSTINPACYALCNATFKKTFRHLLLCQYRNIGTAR
Nature of the experiment: Functional mobilization of intracellular calcium (FLIPR) in M4-CHO cells. Conditions: Table 4; for Emax: 100% efficacy is the maximum response obtained with the Carbachol control; for M4 Activity: modulating M4 receptor. Format: cell-based. In short, it runs like this: as §1

For the compound `CCOC(=O)N1CCC(N2CCC3(CC2)CN(C2CCCC2=O)c2ccc(F)cc23)CC1` (centres unmarked) [compound 756], at M1 muscarinic receptor, the Emax was 25 to 100% and the “M1 Activity” value was “xxx (activity was measured to be less than 2.0 μM)”. For the same compound, on M4 muscarinic receptor, the Emax was 25 to 100% and the “M4 Activity” value is on record as “xxx (activity was measured to be less than 2.0 μM)”.
Turning to `CC(=O)N1CC2(CCN(CC3CCN(C(=O)OC4CCC4)CC3)CC2)c2cc(C)ccc21` [compound 757], at M1 muscarinic receptor, the maximal effect (Emax) was below 25% and the “M1 Activity” value is “x (activity was measured to be greater than 5.0 μM)”. Besides, at M4 muscarinic receptor, the Emax was below 25% and the “M4 Activity” value is given as “x (activity was measured to be greater than 5.0 μM)”.
On to `CC1(C)C(=O)c2ccccc2C12CCN([C@@H]1C[C@@H]3CC[C@H]1C3)CC2` [compound 758], for which, at M1 muscarinic receptor, the Emax was below 25% and the “M1 Activity” value is “x (activity was measured to be greater than 5.0 μM)”. For the same compound, at M4 muscarinic receptor, the Emax was below 25% and the “M4 Activity” value is “x (activity was measured to be greater than 5.0 μM)”.
Regarding `CC(=O)N[C@H]1CC2(CCN(C3CCC(C(C)C)CC3)CC2)c2ccccc21` (some centres unmarked) [compound 759], at M1 muscarinic receptor, the Emax is below 25% and the “M1 Activity” value was “x (activity was measured to be greater than 5.0 μM)”. Also, on M4 muscarinic receptor, the Emax was below 25% and the “M4 Activity” value is “x (activity was measured to be greater than 5.0 μM)”.
Take `COc1ccc(N2CCC(N3CCC4(CC3)CN(C(=O)N(C)C)c3ccc(F)cc34)CC2)nn1` [compound 760]: at M1 muscarinic receptor, the Emax is 25 to 100% and the “M1 Activity” value is listed as “x (activity was measured to be greater than 5.0 μM)”. On M4 muscarinic receptor, the Emax was in the range of 25 to 100% and the “M4 Activity” value is on record as “xxx (activity was measured to be less than 2.0 μM)”.
On to `CC#CCOC(=O)N1CC[C@H](CN2CCC3(CC2)CN(C(=O)N(C)C)c2ccc(F)cc23)C1` [compound 761], for which, at M1 muscarinic receptor, the Emax lay within 25 to 100% and the “M1 Activity” value was “xxx (activity was measured to be less than 2.0 μM)”. Also, at M4 muscarinic receptor, the Emax was in the range of 25 to 100% and the “M4 Activity” value is recorded as “xxx (activity was measured to be less than 2.0 μM)”.
`Cc1ncc(N2CCC(N3CCC4(CC3)CN(C(=O)N(C)C)c3ccc(F)cc34)CC2)nc1C` [compound 762]: on M1 muscarinic receptor, the Emax lay within 25 to 100% and the “M1 Activity” value is “xxx (activity was measured to be less than 2.0 μM)”. At M4 muscarinic receptor, the maximal response (Emax) fell in the range of 25 to 100% and the “M4 Activity” value is “xxx (activity was measured to be less than 2.0 μM)”.
`CC(=O)N[C@H]1CCC2(CCN(CCC3=C(C)CCCC3(C)C)CC2)c2ccccc21` [compound 764]: at M1 muscarinic receptor, the Emax lay in the range of 25 to 100% and the “M1 Activity” value is “xxx (activity was measured to be less than 2.0 μM)”. Besides, on M4 muscarinic receptor, the Emax is below 25% and the “M4 Activity” value is listed as “xxx (activity was measured to be less than 2.0 μM)”.
With `CCOC(=O)N1CCC(N2CCC3(CC(=O)c4cc(F)ccc43)C2)CC1` (centres unmarked) [compound 765], at M1 muscarinic receptor, the maximal response (Emax) lay within 25 to 100% and the “M1 Activity” value is given as “x (activity was measured to be greater than 5.0 μM)”. Further, at M4 muscarinic receptor, the Emax is below 25% and the “M4 Activity” value was “x (activity was measured to be greater than 5.0 μM)”.
Regarding `O=C1CCCN1[C@H]1CCC2(CCN([C@@H]3CC4CC[C@H]3C4)CC2)c2ccccc21` [compound 766], on M1 muscarinic receptor, the Emax was in the range of 25 to 100% and the “M1 Activity” value is “xxx (activity was measured to be less than 2.0 μM)”. Moreover, at M4 muscarinic receptor, the Emax lay in the range of 25 to 100% and the “M4 Activity” value is on record as “xxx (activity was measured to be less than 2.0 μM)”.
With `CN(C)C(=O)N1CC2(CCN(C3CCN(C(=O)c4ccc(F)cc4)CC3)CC2)c2cc(F)ccc21` [compound 767], on M1 muscarinic receptor, the maximal response (Emax) fell in the range of 25 to 100% and the “M1 Activity” value was “x (activity was measured to be greater than 5.0 μM)”. At M4 muscarinic receptor, the maximum response (Emax) was below 25% and the “M4 Activity” value is listed as “x (activity was measured to be greater than 5.0 μM)”.
On to `CCOC(=O)N1CCC(N2CCC3(CC2)CN(C(C)=O)c2c(-c4ccc(C)cc4)cccc23)CC1` [compound 768], for which, at M1 muscarinic receptor, the Emax lay within 25 to 100% and the “M1 Activity” value was “x (activity was measured to be greater than 5.0 μM)”. Also, on M4 muscarinic receptor, the maximal effect (Emax) is below 25% and the “M4 Activity” value is reported as “x (activity was measured to be greater than 5.0 μM)”.
Regarding `CCOC(=O)N1CCC(N2CCC3(CC2)CN(C(C)=O)c2ccc(Br)cc23)CC1` [compound 769], on M1 muscarinic receptor, the Emax was 25 to 100% and the “M1 Activity” value is given as “xxx (activity was measured to be less than 2.0 μM)”. In addition, at M4 muscarinic receptor, the maximal effect (Emax) was in the range of 25 to 100% and the “M4 Activity” value is “xxx (activity was measured to be less than 2.0 μM)”.
On to `COc1cccc(C(=O)N2CCC(N3CCC4(CC3)CN(C(=O)N(C)C)c3ccc(F)cc34)CC2)c1` [compound 770], for which, on M1 muscarinic receptor, the maximal effect (Emax) fell in the range of 25 to 100% and the “M1 Activity” value is reported as “xxx (activity was measured to be less than 2.0 μM)”. For the same compound, at M4 muscarinic receptor, the maximal effect (Emax) was below 25%; the “M4 Activity” value is “xx (activity was measured to be between 2.0 μM and 5.0 μM)”.
For the compound `COC(=O)N1CCC(N2CCC3(CC2)CN(C(C)=O)c2ccc(F)cc23)C1` (centres unmarked) [compound 771], at M1 muscarinic receptor, the maximum response (Emax) was below 25% and the “M1 Activity” value is on record as “x (activity was measured to be greater than 5.0 μM)”. On M4 muscarinic receptor, the maximum response (Emax) was below 25% and the “M4 Activity” value is listed as “x (activity was measured to be greater than 5.0 μM)”.
For the compound `CN(C)C(=O)N1CC2(CCN(C3CCCN(C(=O)OCCF)CC3)CC2)c2cc(F)ccc21` (centres unmarked) [compound 772], on M1 muscarinic receptor, the Emax was 25 to 100% and the “M1 Activity” value is given as “xxx (activity was measured to be less than 2.0 μM)”. On M4 muscarinic receptor, the maximum response (Emax) lay in the range of 25 to 100% and the “M4 Activity” value is given as “xxx (activity was measured to be less than 2.0 μM)”.
Turning to `CS(=O)(=O)N[C@H]1CCC2(CCN(CC3CCCCC3)CC2)c2ccccc21` [compound 773], on M1 muscarinic receptor, the maximal response (Emax) was 25 to 100% and the “M1 Activity” value is on record as “xxx (activity was measured to be less than 2.0 μM)”. Besides, at M4 muscarinic receptor, the maximal response (Emax) was 25 to 100% and the “M4 Activity” value is “xxx (activity was measured to be less than 2.0 μM)”.
For the compound `CCOC(=O)N1CCC(N2CCC3(CC2)C[C@H](NC(C)=O)c2cc(OC)c(OC)cc23)CC1` [compound 774], on M1 muscarinic receptor, the Emax is 25 to 100% and the “M1 Activity” value is on record as “x (activity was measured to be greater than 5.0 μM)”. In addition, at M4 muscarinic receptor, the Emax fell in the range of 25 to 100% and the “M4 Activity” value is given as “x (activity was measured to be greater than 5.0 μM)”.
On to `C#CCOC(=O)N1CC[C@@H](CN2CCC3(CC2)CN(C(=O)N(C)C)c2ccc(F)cc23)C1` [compound 775], for which, at M1 muscarinic receptor, the Emax lay in the range of 25 to 100% and the “M1 Activity” value is “xxx (activity was measured to be less than 2.0 μM)”. Moreover, on M4 muscarinic receptor, the maximal response (Emax) was 25 to 100% and the “M4 Activity” value is on record as “xxx (activity was measured to be less than 2.0 μM)”.
Take `CC#CCOC(=O)N1C2CCC1CC(N1CCC3(CC1)CN(C(C)=O)c1ccccc13)C2` (centres unmarked) [compound 777]: on M1 muscarinic receptor, the Emax fell in the range of 25 to 100% and the “M1 Activity” value was “xxx (activity was measured to be less than 2.0 μM)”. Also, at M4 muscarinic receptor, the Emax was in the range of 25 to 100% and the “M4 Activity” value was “xxx (activity was measured to be less than 2.0 μM)”.
Regarding `O=C(N[C@H]1CC2(CCN(C3CCCCC3)CC2)c2ccccc21)C1CC1` [compound 779], on M1 muscarinic receptor, the Emax fell in the range of 25 to 100%; the “M1 Activity” value was “xx (activity was measured to be between 2.0 μM and 5.0 μM)”. For the same compound, on M4 muscarinic receptor, the Emax was below 25% and the “M4 Activity” value is reported as “xxx (activity was measured to be less than 2.0 μM)”.
In the case of `CC(=O)N[C@H]1CC2(CCN(CC(=O)N3CCC(=O)N3)CC2)c2ccccc21` [compound 780], at M1 muscarinic receptor, the Emax is below 25% and the “M1 Activity” value is “x (activity was measured to be greater than 5.0 μM)”. Moreover, on M4 muscarinic receptor, the Emax was below 25% and the “M4 Activity” value is given as “x (activity was measured to be greater than 5.0 μM)”.
As to `CN(C)C(=O)N1CC2(CCN(C3CCN(C(=O)C4COc5ccccc5O4)CC3)CC2)c2cc(F)ccc21` (centres unmarked) [compound 781], at M1 muscarinic receptor, the maximal effect (Emax) was 25 to 100% and the “M1 Activity” value is listed as “x (activity was measured to be greater than 5.0 μM)”. At M4 muscarinic receptor, the Emax was below 25% and the “M4 Activity” value is given as “x (activity was measured to be greater than 5.0 μM)”.

One may read the Emax as the maximal effect, on the per cent scale that the assay sets.
